pIC50: −log10 of the molar value.

Experiment [1] deals with NCI-H2199 xenograft tumors. The experiment in a line: Xenograft tumor growth in athymic mice, NCI-H2199. Format: in vivo. The settings on record: Myc^low NCI-H2199, 60 mg/kg oral gavage twice a day. The text has this: (§1) FIG. 7. illustrates how H-1152 elicits therapeutic efficacy against tumorigenesis of cancer cells that overexpress MYC. […] Extracts from four human cancer cell lines (1. NCI-H524, 2. NCI-H841, 3. NCI-H211, 4. NCI-H2199) were blotted for MYC and tubulin by Western blotting. […] See Appendix D for Method of Mouse In Vivo Assay. Two Myc^high cell lines and two Myc^low cell lines were implanted subcutaneously into athymic mice (One to ten millions of cells per injection). When tumors reached approximately 50-70 mm^3, tumor-bearing mice were randomized to receive oral gavage with either vehicle of H-1152 (60 mg/kg body weight per injection) twice a day until the endpoint. The tumor volume was determined at the indicated time points.
(§2) To determine whether tissue culture results can be replicated in vivo, two cell lines from Myc^High group, namely NCI-H841 and NCI-H524, and two cell lines from Myc^low group, namely NCI-H211 and NCI-H2199. […]
(§3) Experimental mice are housed and treated according to the protocol approved by the Institutional Animal Care and Use Committee of MBICR. […] Tumor diameter at injection sites are monitored at the indicated time points with a digital caliper and the volume calculated using the formula: V (mm3)=A×B×B/2, where A and B represent the largest and smallest diameters of the tumor respectively.

In experiment [2] the test system is NCI-H524 xenograft tumors. Put plainly: Xenograft tumor growth in athymic mice, NCI-H524. In kind it is in vivo. The settings on record: Myc^high NCI-H524, 60 mg/kg oral gavage twice a day.
Source text: as §1, §2, §3

Experiment [3] relates to HA1E cells expressing MycER. The experiment in a line: Cell death on acute activation of MYC (MycER + 4-OHT), HA1E. In kind it is cell-based, human. The settings on record: 3 days; for cell death, agent alone: single agent. As to the method:
(§4) Cell viability was determined by the trypan blue exclusion assay. Each column represents the average of 3 independent experiments, and each experiment was done in triplicate. Error bars represent one standard deviation. FIG. 1(B) illustrates the cytotoxicity of H-1152 for normal cells and a MYC-overexpressing human cancer cell line IM-9. H-1152 was applied to the indicated cells at 6 μM for 3 days. Cell viability, was determined by the trypan blue exclusion assay. A representative experiment is shown. […] Rat1A cells harboring either an empty vector or various indicated oncogenes were treated with either 0.1% DMSO or 6 μM H-1152 for 3 days. Cell viability was determined by the trypan blue exclusion assay. Each column represents the average of 3 independent experiments, and each experiment was done in triplicate. Error bars represent one standard deviation. […] Rat (Rat1A) or human (HA1E and IMR-90) cells expressing either MycER or MycNER were incubated with or without 6 μM H-1152 and/or 200 nM 4-OHT for 3 days. Cell viability was determined by the trypan blue exclusion assay. A representative experiment is shown.
(§5) In order to negate the possibility that sustained expression of MYC gene has given rise to unidentified targets affected by H-1152, sensitivity of H-1152 in acutely activated cells was measured. Acute activation of MYC was exploited by means of a MYC-estrogen receptor chimera. This receptor is rapidly activated by the addition of 4-hydroxy-tamoxifen (“4-OH”). […] FIG. 1D. A similar experiment was conducted with acute activation of the MYCN gene. MYCN shares high sequence similarity and crucial biochemical and genetic activities with MYC. […] Accordingly, H-1152 elicits MYC-dependent cell lethality irrespective of whether MYC is constitutively expressed or acutely activated. Furthermore, this sensitivity holds true for both fibroblasts cells and epithelial cells.

For experiment [4], the system named is RPE-MYC cells. Put plainly: Trypan blue exclusion cell viability assay in RPE-MYC cells. To be noted: 72 hours. In kind it is cell-based, human. Here is the method: as §4
FIG. 3(B) illustrates how H-1152, but not other inhibitors of ROCK kinases, preferentially kills RPE-MYC cells. […] Cell viability was determined by the trypan blue exclusion assay. […]

Experiment [5] deals with IMR-90 cells expressing MycER. Put plainly: Cell death on acute activation of MYC (MycER + 4-OHT), IMR-90. In kind it is cell-based, human. The settings on record: IMR-90 MycER, 3 days; for cell death, agent alone: single agent. Here is the method: as §4, §5
Experiment [6] concerns NCI-H211 xenograft tumors. The experiment in a line: Xenograft tumor growth in athymic mice, NCI-H211. In kind it is in vivo. The settings on record: Myc^low NCI-H211, 60 mg/kg oral gavage twice a day.
Source text: as §1, §2, §3

The test system of experiment [7] is Myc^low human cancer cell lines. Put plainly: Cytotoxicity in Myc^low human cancer cell lines (trypan blue). Format: cell-based. The settings on record: Myc^low group, 6 μM, 4 days. As to the method:
(§6) FIG. 5. illustrates that MYC abundance is a univariate predicator of the response of human tumor cell lines to H-1152 by showing the cytotoxicity of H-1152 for 75 human cancer cell lines. Cell lines in the Myc^high group and the Myc^low group were treated for four days with either 0.1% DMSO or 6 μM H-1152. Cell viability was then determined by the trypan blue exclusion assay. FIG. 5(A) is a histogram representing the average of two independent experiments. […] Results are presented as the percentage of dead cells in the presence of H-1152 minus that in the presence of DMSO. Red, yellow and green dots represent cell lines with abundant Myc, MycN and L-Myc respectively. Comparison of the two data sets with two-sided Mann-Whitney test indicates p<0.0001.
(§7) The Myc^high group also includes 8 cell lines with abundant MycN expression and 3 cell lines abundantly expressing L-Myc. […] (FIG. 5 A, B). The difference between the two data sets was statistically significant.

The subject of experiment [8] is RPE-MYC cells. The experiment in a line: Apoptosis assays (immunofluorescence, Mitotracker) in RPE-MYC cells. In kind it is cell-based, human. The settings on record: 6 μM. Here is the method:
RPE-MYC cells were exposed to 6 μM H-1152 for 48 hours and then incubated for 30 minutes with 40 nM MITOTRACKER Red (Molecular Probes) and fixed. Fixed cells were stained for DNA with DAPI (in blue) and then analyzed with a confocal laser microscope. Arrowheads indicate apoptotic nuclei. Scale bar, 10 μm. See Appendix A—for Immunofluorescence Microscopy method. […] RPE-MYC and RPE-NEO cells were treated with 0.1% DMSO or 6 μM H-1152 for 3 days and then subjected to the indicated assays. Each column represents the average of 3 independent experiments, and each experiment was done in triplicate. Error bars represent one standard deviation.
FIG. 2B. […] FIB 2A. […]
Cells are cultured on coverslips in a 6-well plate, fixed with 4% paraformaldehyde or 4% paraformaldehyde followed with methanol treatment, and then permeabilized with 0.3% Triton X-100. […] Primary antibodies are detected with Texas red-conjugated or fluorescein isothiocyanate-conjugated secondary antibodies that may be purchased from Jackson ImmunoResearch. […]
For determination of mitochondrial membrane potential, cells are cultured on cover slips and exposed for 30 min at 37° C. with 40 nM Mitotracker# Red CMXRos (Molecular Probes), a dye that accumulates in mitochondria as a function of the mitochondrial potential. […] For fluorescence detection, an EVOS FL auto microscope (THERMO FISHER) can be used.

The test system of experiment [9] is Myc^high human cancer cell lines. The experiment in a line: Cytotoxicity in Myc^high human cancer cell lines (trypan blue). To be noted: 6 μM, 4 days. In kind it is cell-based. As to the method: as §6, §7
Experiment [10] concerns IM-9 cells. Put plainly: Trypan blue exclusion cell viability assay in IM-9 cells. In kind it is cell-based, human. The settings on record: IM-9, 6 μM, 3 days. Here is the method:
as §4
(§8) The result after 3-days treatment were similar. […] The one observed exception is the IM-9 cells that overexpress MYC. Cell lethality in the IM-9 cell line was approximately 30% after H-1152 treatment for 3 days. FIG. 1B.

Experiment [11] has as its system NCI-H841 xenograft tumors. The experiment in a line: Xenograft tumor growth in athymic mice, NCI-H841. Format: in vivo. The settings on record: Myc^high NCI-H841, 60 mg/kg oral gavage twice a day.
Source text: as §1, §2, §3

For experiment [12], the system named is normal cells and immortalized cells. Put plainly: Trypan blue exclusion cell viability assay in normal and immortalized cells. In kind it is cell-based. The settings on record: 6 μM, 3 days. As to the method:
as §4, §8

For experiment [13], the system named is Rat1A cells expressing MYC or other oncogenes. The experiment in a line: Trypan blue exclusion cell viability assay in Rat1A cells harboring various oncogenes. In kind it is cell-based, rat. The settings on record: 6 μM, 3 days. As to the method:
as §4
To determine whether cytotoxicity by H-1152 is dependent on MYC-expression or any oncogene, rat 1A cells expressing MYC as well as other active cellular oncogenes were evaluated for lethality. […] FIG. 1C.

Experiment [14] deals with cells expressing MYCN-estrogen receptor chimera. Put plainly: Cell death on acute activation of MYCN (MycNER + 4-OHT). To be noted: MYCN-ER activated with 4-OHT, H-1152 application. Format: cell-based. Here is the method:
as §4
In order to negate the possibility that sustained expression of MYC gene has given rise to unidentified targets affected by H-1152, sensitivity of H-1152 in acutely activated cells was measured. Acute activation of MYC was exploited by means of a MYC-estrogen receptor chimera. […]

Experiment [15] deals with RPE-NEO cells. The experiment in a line: Trypan blue exclusion cell viability assay in RPE-NEO cells. Format: cell-based, human. The settings on record: 6 μM H-1152, 3 days. As to the method:
as §4
In order to confirm that H-1152 elicits cytotoxicity in cells overexpressing MYC, human retinal pigment epithelial cells were stably transfected with either MYC or a Neomycin selection marker gene (“NEO”) in combination with hTERT. […]

Experiment [16] deals with ROCKII (Homo sapiens, UniProt O75116). The settings on record: cited from earlier work.
ROCKII, sequence (O75116 whole entry, species assumed): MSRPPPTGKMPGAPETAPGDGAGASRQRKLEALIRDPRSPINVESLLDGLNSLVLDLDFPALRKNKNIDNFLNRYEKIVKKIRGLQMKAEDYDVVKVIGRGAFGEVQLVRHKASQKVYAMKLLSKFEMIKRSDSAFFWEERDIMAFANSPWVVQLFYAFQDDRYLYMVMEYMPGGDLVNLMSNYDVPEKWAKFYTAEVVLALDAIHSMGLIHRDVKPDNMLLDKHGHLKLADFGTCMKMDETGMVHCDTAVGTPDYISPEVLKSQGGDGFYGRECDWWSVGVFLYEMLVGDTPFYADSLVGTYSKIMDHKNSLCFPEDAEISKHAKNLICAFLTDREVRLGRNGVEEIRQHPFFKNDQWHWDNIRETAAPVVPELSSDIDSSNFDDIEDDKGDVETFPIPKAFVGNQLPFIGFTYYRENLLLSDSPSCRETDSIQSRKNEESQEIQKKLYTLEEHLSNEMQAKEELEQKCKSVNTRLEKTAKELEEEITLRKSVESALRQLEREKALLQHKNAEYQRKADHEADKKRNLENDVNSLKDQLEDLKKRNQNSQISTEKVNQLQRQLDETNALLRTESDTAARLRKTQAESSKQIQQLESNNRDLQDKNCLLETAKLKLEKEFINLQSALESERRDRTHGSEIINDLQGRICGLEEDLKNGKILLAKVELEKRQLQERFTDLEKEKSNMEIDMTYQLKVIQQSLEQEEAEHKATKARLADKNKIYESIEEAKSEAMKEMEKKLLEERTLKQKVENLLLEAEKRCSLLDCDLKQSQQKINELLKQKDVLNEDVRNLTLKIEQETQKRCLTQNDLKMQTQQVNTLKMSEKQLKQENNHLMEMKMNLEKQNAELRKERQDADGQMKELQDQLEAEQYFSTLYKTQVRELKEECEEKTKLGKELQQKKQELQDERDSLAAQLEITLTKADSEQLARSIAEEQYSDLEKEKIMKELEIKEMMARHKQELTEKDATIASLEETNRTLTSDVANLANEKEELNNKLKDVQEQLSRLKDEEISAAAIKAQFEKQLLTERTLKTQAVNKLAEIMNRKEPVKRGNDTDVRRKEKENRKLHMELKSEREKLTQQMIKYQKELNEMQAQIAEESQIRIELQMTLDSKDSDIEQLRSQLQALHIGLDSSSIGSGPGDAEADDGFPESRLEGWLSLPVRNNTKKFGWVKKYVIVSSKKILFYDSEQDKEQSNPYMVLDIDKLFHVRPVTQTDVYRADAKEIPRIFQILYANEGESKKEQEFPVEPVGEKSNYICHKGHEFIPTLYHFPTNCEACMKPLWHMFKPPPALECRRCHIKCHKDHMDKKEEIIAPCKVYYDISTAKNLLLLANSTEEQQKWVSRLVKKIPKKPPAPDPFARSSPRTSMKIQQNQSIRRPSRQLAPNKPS
[17] abbreviates: 6 μM H-1152 together with 200 nM 4-OHT.

Turning to `Cc1cncc2cccc(S(=O)(=O)N3CCCNC[C@@H]3C)c12` [H-1152, dimethylfasudil], the tumor development result is “failed to impact tumor development” in experiment [1], “stabilized tumor development” in experiment [2], “failed to impact tumor development” in experiment [6] and “slowed down tumor development” in experiment [11]. Further, the cell lethality result in [3] (setting [17]) is “over 30%”; in experiment [4] (6 μM H-1152 + 100 μM z-VAD-fmk), 15%; in [5] (setting [17]) it was “over 30%”; in experiment [10], “approximately 30%”; in experiment [14], “high cell lethality”. Further, the “cell death, agent alone” value in experiment [3] and in experiment [5] was “low levels of cell death” in each case. Besides, the “cell death in comparison of ROCK inhibitors” value in [4] is given as “significant cell death”. For the same molecule, in experiment [7], the “cell lines sensitive to H-1152” value was 3 of 24. In addition, in [8] (48 hours), the “mitochondria-dependent apoptosis pathway events (membrane potential, cytochrome C release, caspase 9)” value is listed as “cell death via activation of the mitochondria-dependent apoptosis pathway”. For the same molecule, the “apoptotic features (nuclear condensation, caspase 3 activation, PARP cleavage)” value in experiment [8] (3 days) was “Symptoms of classical apoptosis were recorded”. Besides, in experiment [9], the “cell death across cell lines, Myc^high versus Myc^low” value is on record as “massive cell death in a much higher percentage of cell lines in the Myc^high group”. For the same molecule, the “cell lines that failed to undergo apoptosis” value in [9] (Myc^high group) was 11 of the 51. Moreover, in experiment [12], the cell toxicity result is reported as “negligible effect on cell toxicity”. In experiment [13], the “cell death among cells with various active oncogenes” value was “only MYC expressing cells demonstrated cell death”. The cells killed entry in experiment [15] was “none”.
Consider 4-hydroxy-tamoxifen [4-OH], for which the “cell death, agent alone” value in experiment [3] and in experiment [5] was “low levels of cell death” throughout.
For orientation: pIC50 means the negative decadic logarithm of the IC50, by convention in mol/L. Turning to `C[C@H]1CNCCCN1S(=O)(=O)c1cccc2cncc(F)c12` [Rapasudil], the pIC50 in experiment [16] is 7.72.

Source of the values: patent publication US20180346995A1, “Process for Exploiting Synthetic Lethality Based on OverExpression of MYC Oncogene” (priority 2017, published 2018).
